Measured values published in PubChem BioAssay (NCI).
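Here, GI50 denotes the concentration required for 50% inhibition of growth. The concentration for full growth arrest is given as TGI.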

Legend:
Assay in all cases: NCI anticancer screen, dose series, 384-well format
[1] = system: SK-MEL-2 melanoma
[2] = system: 786-0 renal
[3] = system: T-47D breast
[4] = system: CAKI-1 renal
[5] = system: SK-OV-3 ovarian
[6] = system: LOX IMVI melanoma
[7] = system: HCC-2998 colon
[8] = system: ACHN renal
[9] = system: HOP-62 NSCLC
[10] = system: SF-295 CNS
[11] = system: EKVX NSCLC
[12] = system: UACC-62 melanoma
[13] = system: A498 renal
[14] = system: TK-10 renal
[15] = system: SF-539 CNS
[16] = system: OVCAR-8 ovarian
[17] = system: SK-MEL-28 melanoma
[18] = system: HCT-116 colon
[19] = system: U251 glioblastoma
[20] = system: HOP-92 NSCLC
[21] = system: SK-MEL-5 melanoma
[22] = system: HT29 colon
[23] = system: HS 578T breast
[24] = system: SW-620 colon
[25] = system: OVCAR-5 ovarian
[26] = system: BT-549 breast
[27] = system: NCI-H322M lung
[28] = system: RPMI-8226 leukemia
[29] = system: DU-145 prostate
[30] = system: SN12C renal
[31] = system: NCI-H226 lung
[32] = system: UACC-257 melanoma
[33] = system: MALME-3M melanoma
[34] = system: MOLT-4 leukemia
[35] = system: CCRF-CEM leukemia
[36] = system: NCI-H460 NSCLC
[37] = system: HL-60(TB) leukemia
[38] = system: A549 NSCLC
[39] = system: MDA-MB-231 breast
[40] = system: OVCAR-4 ovarian
[41] = system: PC-3 prostate
[42] = system: MCF7 breast
[43] = system: NCI-H23 lung
[44] = system: NCI/ADR-RES ovarian
[45] = system: SNB-75 CNS
[46] = system: K-562 leukemia
[47] = system: SR leukemia

## COC1(C(=O)N2Cc3nc(Cl)nc(N[C@H](C)c4cc(N)cc(C(F)(F)F)c4)c3C2)CCOCC1
[1]
  GI50: 16.9 µM
  TGI: 31.1 µM
[2]
  GI50: 16.5 µM
  TGI: 33.2 µM
[3]
  GI50: 12.4 µM
  TGI: 32.5 µM
[4]
  GI50: 6.99 µM
  TGI: 35.4 µM
[5]
  GI50: 18.9 µM
  TGI: 40.3 µM
[6]
  GI50: 18.7 µM
  TGI: 32.8 µM
[7]
  GI50: 15.4 µM
  TGI: 30.3 µM
[8]
  GI50: 20.4 µM
  TGI: 67 µM
[9]
  GI50: 15.6 µM
  TGI: 29.3 µM
[10]
  GI50: 15.1 µM
  TGI: 32.5 µM
[11]
  GI50: 12.8 µM
  TGI: 38.8 µM
[12]
  GI50: 15.6 µM
  TGI: 29.1 µM
[13]
  GI50: 14.1 µM
  TGI: 35.3 µM
[14]
  GI50: 14.9 µM
  TGI: 35.3 µM
[15]
  GI50: 15.3 µM
  TGI: 28.7 µM
[16]
  GI50: 18.4 µM
  TGI: 46.1 µM
[17]
  GI50: 18.5 µM
  TGI: 34.9 µM
[18]
  GI50: 16.3 µM
  TGI: 31.2 µM
[19]
  GI50: 15.1 µM
  TGI: 29.7 µM
[20]
  GI50: 0.646 µM
  TGI: 18.6 µM
[21]
  GI50: 15 µM
  TGI: 28.4 µM
[22]
  GI50: 18.2 µM
  TGI: 35.9 µM
[23]
  GI50: 12.6 µM
  TGI: 25.7 µM
[24]
  GI50: 17.9 µM
  TGI: 40.2 µM
[25]
  GI50: 23.2 µM
  TGI: 75 µM
[26]
  GI50: 14.5 µM
  TGI: 28 µM
[27]
  GI50: 13.5 µM
  TGI: 43.2 µM
[28]
  GI50: 10.6 µM
  TGI: 22.5 µM
[29]
  GI50: 19.9 µM
  TGI: 50.9 µM
[30]
  GI50: 10.1 µM
  TGI: 25.3 µM
[31]
  GI50: 13.4 µM
  TGI: 31 µM
[32]
  GI50: 18.3 µM
  TGI: 33.3 µM
[33]
  GI50: 16.2 µM
  TGI: 34.3 µM
[34]
  GI50: 8.48 µM
  TGI: 21 µM
[35]
  GI50: 15.5 µM
  TGI: 29.1 µM
[36]
  GI50: 16.4 µM
  TGI: 31 µM
[37]
  GI50: 16.2 µM
  TGI: 29.8 µM
[38]
  GI50: 24.5 µM
  TGI: > 100 µM
[39]
  GI50: 22.4 µM
  TGI: 55.3 µM
[40]
  GI50: 15.6 µM
  TGI: 43.8 µM
[41]
  GI50: 16.3 µM
  TGI: 31.5 µM
[42]
  GI50: 13.4 µM
  TGI: 30 µM
[43]
  GI50: 14.2 µM
  TGI: 38.6 µM
[44]
  GI50: 17.5 µM
  TGI: 51.8 µM
[45]
  GI50: 10.7 µM
  TGI: 23.5 µM
[46]
  GI50: 0.152 µM
  TGI: 15 µM
[47]
  GI50: 10.5 µM
  TGI: 22.4 µM
